Experimental findings from US20210322509A1, “Methods for Reducing Perinatal Morbidity and / or Mortality” (CHU SAINTE-JUSTINE, priority 2016, published 2021) are described below.

Assay [1] has as its system lungs of pups from IL-1β-treated dams. Briefly: Lung histology (alveoli count, architecture) at PT15. It counts as in vivo, mice. The settings on record: for damages to lung architecture caused by IL-1β: histology. How it is done:
One-way ANOVA compared to IL-1β+Veh. *p<0.05, ***p<0.001. Sham (n=6 pups), IL-1β (n=3 pups), IL-1β+Compound 1 (n=6 pups), IL-1β+Kin (n=8 pups).
(§1) Histology. Intestines (from ileum to rectum) and lungs of post-term (PT) 15 mice were collected and fixed in 10% formalin during >48 h and were coated in paraffin. Samples were cut with a microtome (thickness=[…]) and mounted on lamella. Intestines were colored using hematoxylin-phloxine-saffron (HPS), whereas lungs were colored using H&E. Images were taken with a slidescanner (Axioscan®). Quantification of images was performed under blind evaluation of groups using Zen2 software.
The effect of gestational inflammation on the development of the exposed fetuses was studied. At post-term day (PT) 15, the pups from IL-1β-treated dams were sacrificed, and histological analysis of major organs known to be affected by prematurity/gestational inflammation (the lung, the intestines and the brain) was performed. For the lung, a blind count of alveoli was performed using ImageJ.

Assay [2] relates to IL-1β, IL-6, IL-8 and PGF2α in amniotic fluid. Kind of assay: ELISA of pro-inflammatory mediators in amniotic fluid 24 h after IL-1β injection. It is filed as in vivo, mice. Conditions: for levels of all pro-inflammatory mediators (IL-1β, IL-6, IL-8, PGF2α) in amniotic fluid: relative to vehicle. On the procedure:
FIGS. 2A to 2D show the levels of the pro-inflammatory mediators IL-1β (FIG. 2A), IL-6 (FIG. 2B), IL-8 (FIG. 2C) and PGF2a (FIG. 2D) in the amniotic fluid (AF) collected 24 h after IL-1β injection and treatment with vehicle, Compound 1 or Kineret, as assessed by ELISA. One-way ANOVA compared to IL-1β+Veh. **p<0.01, ***p<0.001. STATS: n=4; 4 gestational sacs from 2 animals in each groups.
(§2) Intrauterine […] perinatal inflammation model. Timed-pregnant CD-1 mice at 16.5 days of gestation were steadily anesthetized with an isoflurane mask. After body hair removal from the peritoneal area, a 1.5 cm-tall median incision was performed with surgical scissors in the lower abdominal wall. The lower segment of the right uterine horn was then exposed and 1 μg of IL-1β was injected between two fetal membranes with care of not entering the amniotic cavity. The abdominal muscle layer was sutured and the skin closed with clips. One hundred μL of Compound 1 (1 mg/Kg/12 h), Kineret® (4 mg/Kg/12 h) or vehicle (sterile water) was injected subcutaneously in the neck 30 minutes before stimulation with IL-1β (to allow distribution of drugs to target tissues). Mice delivery was assessed every hour until term (G19-G19.5). Immediately after delivery, neonatal survival was assessed. Some pregnant mice were sacrificed before birth (24 h after the surgery) to either 1) perform caesarean section and photograph fetuses; 2) collect amniotic fluids; and 3) collect placentas. Only tissues and fluids from gestational sacs closer to the cervical end of the uterus were collected to ensure proximity with the IL-1β injection site. Tissues and fluids were snap-frozen in liquid nitrogen and kept at −80° C. for subsequent RNA purification or protein quantification by ELISA.
Murine ELISA assays. […] The enzymatic reaction was stopped after 30 minutes and the plate was read at 450 nm, with wavelength correction set to 570 nm.

Assay [3] deals with intestines of pups from IL-1β-treated dams. Briefly: Histology of ileum and colon (crypts, resident lymph nodes). It counts as in vivo, mice. Conditions: for atrophies in intestinal crypts of the ileum: histology; for number of resident lymph nodes in the colon / size of resident lymph nodes in the colon: relative to vehicle. How it is done:
FIG. 6A to 6D show representative histological analyses of the ileum of neonates from sham (FIG. 6A) and IL-1β-treated dams administered with vehicle (FIG. 6B), Compound 1 (FIG. 6C) or Kineret (FIG. 6D). Arrows indicate crypts. Scale, […].
FIGS. 7A and 7B show the number and size, respectively, of resident lymph nodes in the colon of neonates from sham and IL-1β-treated dams administered with vehicle, Compound 1 or Kineret. Sham (n=6 pups), IL-1β (n=3 pups), IL-1β+Compound 1 (n=6 pups), IL-1β+Kin (n=8 pups).
as §1
Potential damages to the ileum and in the colon were evaluated by histologic analyses. In the ileum, pups from IL-1β-treated dams administered with vehicle had consistent atrophies in their intestinal crypts (FIG. 6B), and this was not observed following administration of compound 1 (FIG. 6C) or Kineret® (FIG. 6D). In the colon, the number of resident lymph nodes per cm, and their size, were measured. Since lymph nodes are part of the innate immunity and play an important role in the immune surveillance of the colon, the number and size of resident lymph nodes is a marker of the immune integrity/health of the intestine.

In assay [4] the test system is timed-pregnant CD-1 mice exposed to IL-1β. Briefly: Intrauterine IL-1β-induced perinatal inflammation model: neonatal survival and fetal growth. It is filed as in vivo. Conditions: for neonatal survival at birth: pups from IL-1β-treated dams (1 μg i.u., G16.5), compound 1 1 mg/Kg/12 h or Kineret 4 mg/Kg/12 h s.c., relative to vehicle. On the procedure:
Timed-pregnant CD-1 mice were exposed to 1 μg of IL-1β at 16.5 days of gestation (G16.5). Compound 1 (Cmpd 1), Kineret or vehicle was injected subcutaneously in the neck skin 30 minutes before stimulation with IL-1β, and mice delivery was assessed every hour until term (G19-G19.5).
One-way ANOVA compared to IL-1β+Veh. ***p<0.001. Control (n=9), sham (n=7), IL-1β (n=26), IL-1β+Compound 1 (n=22), IL-1β+Kin (n=11).
as §2

Non-standard residues stand in square brackets, D forms with d. Residues, ends and D or L forms follow the SMILES beside them. ξ: configuration not given here. dThr(3ξ) = CC(O)[C@@H](N)C(=O)O

In the case of “Kineret: recombinant form of the human interleukin-1 receptor antagonist (IL-1Ra), purchased from Swedish Orphan Biovitrum AB”, the “damages to lung architecture caused by IL-1β” value in assay [1] is listed as “a more modest effect”. For the same compound, in assay [1] (pups from IL-1β-treated dams), the “alveoli count per mm^2” value is on record as “only partially restored the alveoli count”. Further, in assay [2] (compared with compound 1), the “IL-8 levels in amniotic fluid, extent of effect” value was “at a lower extent relative to compound 1”. For the same compound, the “levels of all pro-inflammatory mediators (IL-1β, IL-6, IL-8, PGF2α) in amniotic fluid” value in assay [2] is on record as “only had a significant effect on IL-8 levels”. Besides, in assay [3], the “atrophies in intestinal crypts of the ileum” value was “not observed”, the “number of resident lymph nodes in the colon” value was “not increased at statistically significant levels” and the “size of resident lymph nodes in the colon” value is listed as “significant increase”. Moreover, the “neonatal survival at birth” value in assay [4] was “but not Kineret®, significantly increased neonatal survival”.

As to `CC(C)C[C@@H](NC(=O)[C@@H](CCC(=O)O)NC(=O)[C@H](NC(=O)[C@H](NC(=O)[C@@H](Cc1ccc(O)cc1)NC(=O)[C@H](N)CCCNC(=N)N)C(C)O)C(C)C)C(=O)N[C@H](C)C(N)=O` (stereo partly drawn) [compound 1] (H-[dR][dY][dThr(3ξ)][dV][dE][dL][dA]-NH2), the “damages to lung architecture caused by IL-1β” value in assay [1] is reported as “prevents the damages to lung architecture”. For the same compound, in assay [1] (pups from IL-1β-treated dams), the “alveoli count per mm^2” value is listed as “completely restored the alveoli count” and the “number of alveoli per mm^2 compared with Kineret-treated group” value is “significantly higher”. In assay [2], the “levels of all pro-inflammatory mediators (IL-1β, IL-6, IL-8, PGF2α) in amniotic fluid” value is reported as “significant reduction”. In assay [3], the “atrophies in intestinal crypts of the ileum” value was “not observed”, the “number of resident lymph nodes in the colon” value is recorded as “prevented” and the “size of resident lymph nodes in the colon” value is “prevented”. For the same compound, the “IL-1β-induced growth arrest of fetuses” value in assay [4] (caesarean section of dams after 24 h exposition to intrauterine IL-1β) is recorded as “prevents this detrimental effect”. In addition, the “neonatal survival at birth” value in assay [4] is “significantly increased neonatal survival”. The “reducing neonatal death, inflammation and inflammation-mediated damages in neonatal organs, compared with Kineret” value in assay [4] (summary statement) was “significantly more effective”.
